Reference: the NIST ThermoML archive (doi:10.1016/j.jct.2016.03.040)

Test: mn = molality of the nth substance listed, in mol/kg
Conditions: 100 kPa, Liquid; for speed of sound: Frequency=3 MHz, Sing-around technique in a fixed-path interferometer; for mass density: Vibrating tube method

NCC(=O)NCC(=O)O [glycylglycine] + O
Conditions | mass density, 288.15 K [kg/m3] | mass density, 298.15 K [kg/m3] | mass density, 308.15 K [kg/m3] | mass density, 318.15 K [kg/m3] | speed of sound, 288.15 K [m/s] | speed of sound, 298.15 K [m/s] | speed of sound, 308.15 K [m/s] | speed of sound, 318.15 K [m/s]
m1 = 0.01033 | 999.704 | 997.627 | 994.594 | 990.758 | 1467.7 | 1496.8 | 1520.3 | 1536.9
m1 = 0.02031 | 1000.23 | 998.133 | 995.135 | 991.281 | 1468.6 | 1497.7 | 1521.2 | 1537.7
m1 = 0.04035 | 1001.4 | 999.259 | 996.28 | 992.375 | 1470.5 | 1499.5 | 1522.8 | 1539.3
m1 = 0.06012 | 1002.5 | 1000.39 | 997.363 | 993.41 | 1472.4 | 1501.3 | 1524.4 | 1540.8
m1 = 0.0802 | 1003.7 | 1001.51 | 998.463 | 994.52 | 1474.3 | 1503.1 | 1526 | 1542.4
m1 = 0.1011 | 1004.84 | 1002.62 | 999.564 | 995.646 | 1476.3 | 1505 | 1527.7 | 1544
m1 = 0.1502 | 1007.57 | 1005.27 | 1002.18 | 998.186 | 1480.9 | 1509.4 | 1531.8 | 1547.9
m1 = 0.1995 | 1010.2 | 1007.94 | 1004.8 | 1000.72 | 1485.5 | 1513.8 | 1535.8 | 1551.8
